Laboratory results as given in paper PMC10364322, “Evaluation of chronic drug-induced electrophysiological and cytotoxic effects using human-induced pluripotent stem cell-derived cardiomyocytes (hiPSC-CMs)” (Frontiers in Pharmacology, 2023).
Like-named read-outs stand apart in the source and are kept apart here.

System: hiPSC-CMs (iCell-Cardiomyocytes^2)
How it was run: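 Spontaneous field potentials and impedance recorded by MEA at 37°C, 5% CO2 in hiPSC-CM monolayers (50 K/well, fibronectin-coated), 5-min baseline before compound; final DMSO 0.1%. Values are percent change from baseline, mean ± SD, compared with DMSO by Wilcoxon-Mann Whitney, interpreted against DMSO tolerance intervals.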

## CCN(CC)CCNC(=O)c1c(C)[nH]c(/C=C2\C(=O)Nc3ccc(F)cc32)c1C [Sunitinib]
0.03 µM, 2h
  BR (beating rate), % change from baseline: 0±2%
  FPD (field-potential duration), % change from baseline: 5.5±1.5%
  FPDc (field-potential duration corrected by beat-rate), % change from baseline: 5.3±1.7%
0.03 µM, 24h
  BR (beating rate), % change from baseline: -2±3%
  FPD (field-potential duration), % change from baseline: 11±4.2%
  FPDc (field-potential duration corrected by beat-rate), % change from baseline: 10.1±3.1%
0.03 µM, 48h
  BR (beating rate), % change from baseline: -13±2%
  FPD (field-potential duration), % change from baseline: 20.5±2.7%
  FPDc (field-potential duration corrected by beat-rate), % change from baseline: 14.9±1.9 %
0.03 µM, 72h
  BR (beating rate), % change from baseline: -10±2%
  FPD (field-potential duration), % change from baseline: 19.2±2%
  FPDc (field-potential duration corrected by beat-rate), % change from baseline: 15±1.8%
0.03 µM, 96h
  BR (beating rate), % change from baseline: -18±1%
  FPD (field-potential duration), % change from baseline: 27.4±1.8%
  FPDc (field-potential duration corrected by beat-rate), % change from baseline: 19.3±1.7%
0.1 µM, 2h
  BR (beating rate), % change from baseline: -5±1%
  FPD (field-potential duration), % change from baseline: 12.2±1.2 %
  FPDc (field-potential duration corrected by beat-rate), % change from baseline: 10.3±1 %
0.1 µM, 24h
  BR (beating rate), % change from baseline: -8±4%
  FPD (field-potential duration), % change from baseline: 25.6±6.7 %
  FPDc (field-potential duration corrected by beat-rate), % change from baseline: 21.9±5 %
0.1 µM, 48h
  BR (beating rate), % change from baseline: -19±2 %
  FPD (field-potential duration), % change from baseline: 35.8±4.6 %
  FPDc (field-potential duration corrected by beat-rate), % change from baseline: 26.3±3.6 %
0.1 µM, 72h
  BR (beating rate), % change from baseline: -17±2 %
  FPD (field-potential duration), % change from baseline: 36.3±3.3 %
  FPDc (field-potential duration corrected by beat-rate), % change from baseline: 28.2±2.6 %
0.1 µM, 96h
  BR (beating rate), % change from baseline: -24±1%
  FPD (field-potential duration), % change from baseline: 49±7.7 %
  FPDc (field-potential duration corrected by beat-rate), % change from baseline: 36.1±6.4 %
0.3 µM
  time point from which EAD-like events occurred: 24 h
0.3 µM, 2h
  BR (beating rate), % change from baseline: -15±2 %
  FPD (field-potential duration), % change from baseline: 32.5±1.7 %
  FPDc (field-potential duration corrected by beat-rate), % change from baseline: 25.4±1.4 %
0.3 µM, 24h
  BR (beating rate), % change from baseline: -29±5 %
  FPD (field-potential duration), % change from baseline: 103.1±24.2 %
  FPDc (field-potential duration corrected by beat-rate), % change from baseline: 80.7±18.4 %
0.3 µM, 48h
  BR (beating rate), % change from baseline: -39±4 %
  FPD (field-potential duration), % change from baseline: 120.5±24.7 %
  FPDc (field-potential duration corrected by beat-rate), % change from baseline: 87.2±17.5 %
0.3 µM, 72h
  BR (beating rate), % change from baseline: -38±1 %
  FPD (field-potential duration), % change from baseline: 135.9±4.7 %
  FPDc (field-potential duration corrected by beat-rate), % change from baseline: 101±3.5 %
0.3 µM, 96h
  BR (beating rate), % change from baseline: -44±2 %
  FPD (field-potential duration), % change from baseline: 152.4±12.3 %
  FPDc (field-potential duration corrected by beat-rate), % change from baseline: 108.1±8 %
1 µM, 2h
  BR (beating rate), % change from baseline: -49±4 %
  FPD (field-potential duration), % change from baseline: 182.8±8.5 %
  FPDc (field-potential duration corrected by beat-rate), % change from baseline: 128.9±4.9 %
1 µM, 24h
  BR (beating rate), % change from baseline: -67±3 %
1 µM, 48h
  BR (beating rate), % change from baseline: -68±4 %
1 µM, 72h
  BR (beating rate), % change from baseline: -70±0 %
